Patent US20070123546A1, “2-amino-7,8-dihydro-6H-pyrido[4,3-d]pyrimidin-5-ones” (Chiron Corporation, priority 2005, published 2007)

The molecules below were run against His-tagged N-terminal ATP binding domain (amino acid residues 9-236) of HSP90α (Homo sapiens, UniProt P07900) (assay: HSP90 inhibitor binding potency: TRF competition binding assay). Settings: Table 1; competition with biotinylated radicicol.
Procedure: HSP90 Inhibitor Binding Potency: TRF Binding Assay
In this example, the binding potency of HSP90 inhibitors as measured by a TRF binding assay is described.
TRF competition binding assays were performed to determine the binding potency (IC50 values) of HSP90 inhibitors. Purified His-tagged N-terminal ATP binding domain (amino acid residues 9-236) of HSP90α (HSP90α GeneID: 3320; mRNA Sequence NM_005348) was incubated for two hours at room temperature in binding buffer (50 mM HEPES, 6 mM MgCl2, 20 mM KCl and 0.1% BSA) with biotinylated radicicol and progressively higher concentrations of the competing compounds. A fraction of the mixture was transferred to capture plates (coated with streptavidin) and incubated for one hour at room temperature. After washing with DELFIA wash buffer, europium-labeled anti-his antibody was added and incubated for two hours at room temperature, followed by washing with DELFIA buffer. DELFIA enhancement solution was then added. After gentle shaking for 10 minutes, the plates were read in VICTOR for europium counts.

Structure (SMILES)	IC50
COc1cncc(-c2cc(F)ccc2C2Cc3nc(N)nc(C)c3C(=O)N2)c1 (stereo not drawn) [Compound 36, 2-Amino-7-[4-fluoro-2-(5-methoxy-pyridin-3-yl)-phenyl]-4-methyl-7,8-dihydro-6H-pyrido[4,3-d]pyrimidin-5-one]	< 10 µM
COc1ncccc1-c1cc(F)ccc1C1Cc2nc(N)nc(C)c2C(=O)N1CC(C)(C)N1CCOCC1 (stereo not drawn) [Compound 38, 2-Amino-7-[4-fluoro-2-(2-methoxy-pyridin-3-yl)-phenyl]-4-methyl-6-(2-methyl-2-morpholin-4-yl-propyl)-7,8-dihydro-6H-pyrido[4,3-d]pyrimidin-5-one]	> 10 µM
COc1nc(-c2cc(F)ccc2[C@H]2Cc3nc(N)nc(C)c3C(=O)N2)ncc1C [Compound 40, (R)-2-Amino-7-[4-fluoro-2-(4-methoxy-5-methyl-pyrimidin-2-yl)-phenyl]-4-methyl-7,8-dihydro-6H-pyrido[4,3-d]pyrimidin-5-one]	< 10 µM

Next, values leading:

IC50	Structure (SMILES)
> 10 µM	Cc1nc(N)nc2c1C(=O)N(CC(C)(C)N1CCOCC1)C(c1ccc(F)cc1-c1cncnc1)C2 (stereo not drawn) [Compound 37, 2-Amino-7-(4-fluoro-2-pyrimidin-5-yl-phenyl)-4-methyl-6-(2-methyl-2-morpholin-4-yl-propyl)-7,8-dihydro-6H-pyrido[4,3-d]pyrimidin-5-one]
> 10 µM	COc1cccc(-c2cc(F)ccc2C2Cc3nc(N)nc(C)c3C(=O)N2CC(C)(C)N2CCOCC2)c1 (stereo not drawn) [Compound 39, 2-Amino-7-(5-fluoro-3′-methoxy-biphenyl-2-yl)-4-methyl-6-(2-methyl-2-morpholin-4-yl-propyl)-7,8-dihydro-6H-pyrido[4,3-d]pyrimidin-5-one]
< 10 µM	Cc1nc(N)nc2c1C(=O)NC(c1ccc(F)cc1-c1ccoc1)C2 (stereo not drawn) [Compound 41, 2-Amino-7-(4-fluoro-2-furan-3-yl-phenyl)-4-methyl-7,8-dihydro-6H-pyrido[4,3-d]pyrimidin-5-one]

Same assay, conditions: Table 2; competition with biotinylated radicicol

Structure (SMILES)	IC50
COc1cccc(-c2ccccc2[C@H]2Cc3nc(N)ncc3C(=O)N2)n1 [Compound 43, (R)-2-Amino-7-[2-(6-methoxy-pyridin-2-yl)-phenyl]-7,8-dihydro-6H-pyrido[4,3-d]pyrimidin-5-one]	< 10 µM
COc1nc(-c2cc(F)ccc2[C@H]2Cc3nc(N)nc(C)c3C(=O)N2)ccc1N [Compound 44, (R)-2-Amino-7-[2-(5-amino-6-methoxy-pyridin-2-yl)-4-fluoro-phenyl]-4-methyl-7,8-dihydro-6H-pyrido[4,3-d]pyrimidin-5-one]	< 10 µM
CCOc1ccnc(-c2cc(F)ccc2[C@H]2Cc3nc(N)nc(C)c3C(=O)N2)n1 [Compound 47, (R)-2-Amino-7-[2-(4-ethoxy-pyrimidin-2-yl)-4-fluoro-phenyl]-4-methyl-7,8-dihydro-6H-pyrido[4,3-d]pyrimidin-5-one]	< 10 µM
COc1cnc(-c2cc(F)ccc2[C@H]2Cc3nc(N)nc(C)c3C(=O)N2)nc1OC [Compound 51, (R)-2-Amino-7-[2-(4,5-4-methoxy-pyrimidin-2-yl)-4-fluoro-phenyl]-4-methyl-7,8-dihydro-6H-pyrido[4,3-d]pyrimidin-5-one]	< 10 µM
COc1nc(-c2cc(F)ccc2[C@H]2Cc3nc(N)nc(C)c3C(=O)N2)ncc1Cl [Compound 52, (R)-2-Amino-7-[2-(5-chloro-4-methoxy-pyrimidin-2-yl)-4-fluoro-phenyl]-4-methyl-7,8-dihydro-6H-pyrido[4,3-d]pyrimidm-5-one]	< 10 µM
COc1cncc(-c2cc(F)ccc2[C@H]2Cc3nc(N)ncc3C(=O)N2)n1 [Compound 53, (R)-2-Amino-7-[4-fluoro-2-(6-methoxy-pyrazin-2-yl)-phenyl]-7,8-dihydro-6H-pyrido[4,3-d]pyrimidin-5-one]	< 10 µM
COc1ccc(F)cc1-c1cc(F)ccc1[C@H]1Cc2nc(N)ncc2C(=O)N1 [Compound 55, (R)-2-Ammo-7-(5,5′-difluoro-2′-methoxy-biphenyl-2-yl)-7,8-dihydro-6H-pyrido[4,3-d]pyrimidin-5-one]	< 10 µM
Cc1ccc(-c2cc(F)ccc2[C@H]2Cc3nc(N)ncc3C(=O)N2)cc1 [Compound 60, (R)-2-Amino-7-(5-fluoro-4′-methyl-biphenyl-2-yl)-7,8-dihydro-6H-pyrido[4,3-d]pyrimidin-5-one]	< 10 µM
COc1ncc(-c2cc(F)ccc2[C@H]2Cc3nc(N)ncc3C(=O)N2)c(OC)n1 [Compound 63, (R)-2-Amino-7-[2-(2,4-dimethoxy-pyrimidin-5-yl)-4-fluoro-phenyl]-7,8-dihydro-6H-pyrido[4,3-d]pyrimidin-5-one]	> 10 µM
COc1nc(-c2ccccc2[C@H]2Cc3nc(N)nc(C)c3C(=O)N2)ncc1F [Compound 64, (R)-2-Amino-7-[2-(5-fluoro-4-methoxy-pyrimidin-2-yl)-phenyl]-4-methyl-7,8-dihydro-6H-pyrido[4,3-d]pyrimidin-5-one]	< 10 µM

More lines, now with the values ahead:

IC50	Structure (SMILES)
< 10 µM	COc1cncc(-c2ccccc2[C@H]2Cc3nc(N)ncc3C(=O)N2)n1 [Compound 42, (R)-2-Amino-7-[2-(6-methoxy-pyrazin-2-yl)-phenyl]-7,8-dihydro-6H-pyrido[4,3-d]pyrimidin-5-one]
< 10 µM	COc1nc(-c2ccccc2[C@H]2Cc3nc(N)nc(C)c3C(=O)N2)ccc1N [Compound 45, (R)-2-Amino-7-[2-(5-amino-6-methoxy-pyridin-2-yl)-phenyl]-4-methyl-7,8-dihydro-6H-pyrido[4,3-d]pyrimidin-5-one]
< 10 µM	COc1nc(-c2cc(F)ccc2[C@H]2Cc3nc(N)ncc3C(=O)N2)ccc1N [Compound 46, (R)-2-Amino-7-[2-(5-amino-6-methoxy-pyridin-2-y1)-4-fluoro-phenyl]-7,8-dihydro-6H-pyrido[4,3-d]pyrimidin-5-one]
< 10 µM	COc1ccnc(-c2cc(F)ccc2[C@H]2Cc3nc(N)nc(C)c3C(=O)N2)n1 [Compound 48]
> 10 µM	Cc1nc(N)nc2c1C(=O)N[C@@H](c1ccc(F)cc1-c1nccc(N3CCCC3)n1)C2 [Compound 49]
> 10 µM	Cc1nc(N)nc2c1C(=O)N[C@@H](c1ccc(F)cc1C#N)C2 [Compound 50, 2-((R)-2-Amino-4-methyl-5-oxo-5,6,7,8-tetrahydro-pyrido[4,3-d]pyrimidin-7-yl)-5-fluoro-benzonitrile]
< 10 µM	COc1ccccc1-c1cc(F)ccc1[C@H]1Cc2nc(N)ncc2C(=O)N1 [Compound 54, (R)-2-Amino-7-(5-fluoro-2′-methoxy-biphenyl-2-yl)-7,8-dihydro-6H-pyrido[4,3-d]pyrimidin-5-one]
< 10 µM	COc1cc(F)ccc1-c1cc(F)ccc1[C@H]1Cc2nc(N)ncc2C(=O)N1 [Compound 56, (R)-2-Amino-7-(5,4′-difluoro-2′-methoxy-biphenyl-2-yl)-7,8-dihydro-6H-pyrido[4,3-d]pyrimidin-5-one]
< 10 µM	Cc1cccc(-c2cc(F)ccc2[C@H]2Cc3nc(N)ncc3C(=O)N2)c1 [Compound 58, (R)-2-Amino-7-(5-fluoro-3′-methyl-biphenyl-2-yl)-7,8-dihydro-6H-pyrido[4,3-d]pyrimidin-5-one]
< 10 µM	Cc1cc(F)ccc1-c1cc(F)ccc1[C@H]1Cc2nc(N)ncc2C(=O)N1 [Compound 61, (R)-2-Amino-7-(5,4′-difluoro-2′-methyl-biphenyl-2-yl)-7,8-dihydro-6H-pyrido[4,3-d]pyrimidin-5-one]
< 10 µM	Nc1ncc2c(n1)C[C@H](c1ccc(F)cc1-c1cccnc1)NC2=O [Compound 62, (R)-2-Amino-7-(4-fluoro-2-pyridin-3-yl-phenyl)-7,8-dihydro-6H-pyrido[4,3-d]pyrimidin-5-one]
